Test results published in patent publication US20220095622A1, “Application of Compounds Inhibiting Synthesis of Very Long Chain Fatty Acids in Preventing and Treating Microbial Pathogens and Method Thereof” (Sichuan Agricultural University, priority 2019, published 2022).
Like-named read-outs stand apart in the source and are kept apart here.

Legend:
Type in all cases: in vivo
[1] = test system: Magnaporthe oryzae; assay: whole plant or invertebrate; settings: for inhibition at 100 µM / inhibition at 500 µM: Pyricularia oryzae, read-out: inhibition rate on the number of necrotic spots
[2] = test system: Bipolaris maydis; assay: whole plant or invertebrate; settings: for inhibition at 500 µM: Bipolaris maydis, in Zea mays, read-out: inhibition rate on the formation of disease spots
[3] = test system: Blumeria graminis; assay: Pathogenicity of Blumeria graminis on wheat leaves; settings: 500 μmol/L, vs DMSO
[4] = test system: Magnaporthe oryzae; assay: whole plant or invertebrate; settings: Pyricularia oryzae, read-out: inhibition rate of formation of rice blast necrotic spots, prevention experimental group
[5] = test system: Magnaporthe oryzae; assay: whole plant or invertebrate; settings: Pyricularia oryzae, read-out: inhibition rate of formation of rice blast necrotic spots, treatment experimental group

SMILES: CC(C)N(C(=O)CCl)c1ccccc1 [Propachlor]
- inhibition of the number of necrotic spots of Magnaporthe oryzae (in words) ([1]; drug concentration 100 μM, 30 seedlings sprayed with 5 mL, rice): insignificant inhibitory effect on rice blast
- inhibition at 500 µM [2]: > 50%
- inhibition of occurrence of Blumeria graminis disease spots (in words) [3]: all drugs except Propachlor could inhibit the occurrence of Blumeria graminis disease spots

SMILES: CC(C)N(C(=O)COc1nnc(C(F)(F)F)s1)c1ccc(F)cc1 [Flufenacet]
- inhibition of formation of disease spots on corn leaves (in words) ([2]; in vivo): not obvious

SMILES: CCN(CC)C(=O)n1cnc(S(=O)(=O)c2c(C)cc(C)cc2C)n1 [Cafenstrole]
- inhibition at 500 µM [4]: > 50%
- inhibition at 100 µM [1]: > 50%
- inhibition at 500 µM [1]: > 50%
- inhibition at 500 µM [2]: > 50%
- inhibition at 500 µM [5]: > 50%

SMILES: CC(C)N(C(=O)SC/C(Cl)=C/Cl)C(C)C [Diallate]
- inhibition at 500 µM [4]: > 50%
- inhibition at 100 µM [1]: > 50%
- inhibition at 500 µM [1]: > 50%
- inhibition at 500 µM [5]: > 50%

SMILES: CCCCOCN(C(=O)CCl)c1c(CC)cccc1CC [Butachlor]
- inhibition at 500 µM [1]: > 50%
- inhibition at 500 µM [2]: > 50%

SMILES: Cc1cccc(C)c1N(Cn1cccn1)C(=O)CCl [Metazachlor]
- inhibition at 500 µM [4]: > 50%
- inhibition at 100 µM [1]: > 50%
- inhibition at 500 µM [1]: > 50%
- inhibition at 500 µM [2]: > 50%
- inhibition at 500 µM [5]: > 50%
